Measured values published in US20050197651A1, “Vaginal ring preparation and its application” (priority 2001, published 2005).

Experiment: Drug releasing test of the vaginal ring (shaking water bath, HPLC)
Format: physicochemical
Conditions: device of the current invention vs prior art device, FIG. 4 vs FIG. 3 and FIG. 6 vs FIG. 5
Procedure: Drug Releasing Test: Devices used: 1. High Pressure Liquid Chromatography (HPLC). Shimadzu LC-1 OA T • 2. Shaking water bath: HZS-H Process: • 1. Tie the vaginal ring into a big test tube (125 ml). Add 100 ml distilled water into the tube under 37C. Shake the testing tube for 24 hours with shaking rate of 60/minute. Then take the vaginal ring out. • 2. The standard sample is the Mifepristone provided by Shanghai Family Planning Institute. • 3. C-18-[…] Analytic column (Brand: Shimadzu): Pre-set HPLC. The testing conditions are: • Wavelength 310 nm. • Sensitivity: 0.1 AUFS • Speed: 3 Atten. 5 • Flow phase: methanol: water=70:30 • Moving speed=1 ml/minute • Injection amount: 10 μl • Peak time: 5.48 minutes Take 23 μl/ml standard sample, 10 μl injection sample to get the peak area of 656504-656800. Prepare the calibration based on the amount contained in 100 ml.

Row | Compound | delivery rate over days, compared with prior art vaginal ring
1 | C#C[C@]1(O)CC[C@H]2[C@@H]3CCC4=Cc5oncc5C[C@]4(C)[C@H]3CC[C@@]21C [Danazol] | higher delivery rate of this drug over a longer period of time
2 | CC#C[C@]1(O)CC[C@H]2[C@@H]3CCC4=CC(=O)CCC4=C3[C@@H](c3ccc(N(C)C)cc3)C[C@@]21C [Mifestone, Mifepristone] | significantly higher over a longer period of time
